# Laboratory results taken from patent US11297805B2, “Miticidal beehive entranceway” (priority 2019, dated 2022).
# Key:
# Varroa mites = conditions: concentrated enough to kill the mites but not to harm the bees; cited from earlier work
# [1] = Simulated bee-flight (drone propeller) thymol decay and model of thymol dosage on a worker bee; design: species or system honey bee; conditions: 1 mg thymol/Hydromed behind drone propellers, 6 hours per day, exponential decay
# Method: As such, a single worker bee would pass through the DF-TE 40×, receiving ˜0.7 μg per passage, or 28 μg per day.
compound,measurement,setting,value
Cc1ccc(C(C)C)c(O)c1 [thymol],therapeutic window of thymol vapor,Varroa mites,5-15 microgram/liter of hive air
same,time until a single daily dose of thymol is exhausted on the bee abdomen,[1],≤ 4 days
